Assays:
Assay in all cases: relative viability (nuclei count vs DMSO), 5 days (fraction); higher = more cells survive
Venetoclax + Decitabine = compound: CC1(C)CCC(CN2CCN(c3ccc(C(=O)NS(=O)(=O)c4ccc(NCC5CCOCC5)c([N+](=O)[O-])c4)c(Oc4cnc5[nH]ccc5c4)c3)CC2)=C(c2ccc(Cl)cc2)C1 [Venetoclax] + Nc1ncn([C@H]2C[C@H](O)[C@@H](CO)O2)c(=O)n1 [Decitabine] (partner 2 µM)
How it was run: (§1)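 Dosing by pin tool came one day after lung cancer cell lines were seeded in 1536-well plates, using either one drug or a fixed anchor-drug dose plus five library-drug doses (not always all listed) in √10 steps. After 5 days, nuclei were counted on 4× images. Relative viability is treated-well nuclei count divided by vehicle-well nuclei count, and values are medians of duplicate plates.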

Selumetinib + Navitoclax = compound: Cn1cnc2c(F)c(Nc3ccc(Br)cc3Cl)c(C(=O)NOCCO)cc21 [Selumetinib] + CC1(C)CCC(c2ccc(Cl)cc2)=C(CN2CCN(c3ccc(C(=O)NS(=O)(=O)c4ccc(N[C@H](CCN5CCOCC5)CSc5ccccc5)c(S(=O)(=O)C(F)(F)F)c4)cc3)CC2)C1 [Navitoclax] (partner 0.5 µM)
How it was run: as §1

Venetoclax + Trametinib = compound: CC1(C)CCC(CN2CCN(c3ccc(C(=O)NS(=O)(=O)c4ccc(NCC5CCOCC5)c([N+](=O)[O-])c4)c(Oc4cnc5[nH]ccc5c4)c3)CC2)=C(c2ccc(Cl)cc2)C1 [Venetoclax] + CC(=O)Nc1cccc(-n2c(=O)n(C3CC3)c(=O)c3c(Nc4ccc(I)cc4F)n(C)c(=O)c(C)c32)c1 [Trametinib] (partner 0.02 µM)
How it was run: as §1

Venetoclax + Phenformin = compound: CC1(C)CCC(CN2CCN(c3ccc(C(=O)NS(=O)(=O)c4ccc(NCC5CCOCC5)c([N+](=O)[O-])c4)c(Oc4cnc5[nH]ccc5c4)c3)CC2)=C(c2ccc(Cl)cc2)C1 [Venetoclax] + N=C(N)NC(=N)NCCc1ccccc1 [Phenformin] (partner 250 µM)
How it was run: as §1

Cell Line	relative viability (Venetoclax + Decitabine; first compound 0.01 µM)	relative viability (Venetoclax + Decitabine; first compound 0.03162 µM)	relative viability (Venetoclax + Decitabine; first compound 0.3162 µM)	relative viability (Venetoclax + Decitabine; first compound 1 µM)	relative viability (Selumetinib + Navitoclax; first compound 0.02 µM)	relative viability (Selumetinib + Navitoclax; first compound 0.06325 µM)	relative viability (Selumetinib + Navitoclax; first compound 0.2 µM)	relative viability (Selumetinib + Navitoclax; first compound 0.6325 µM)	relative viability (Venetoclax + Trametinib; first compound 0.01 µM)	relative viability (Venetoclax + Trametinib; first compound 0.03162 µM)	relative viability (Venetoclax + Trametinib; first compound 0.3162 µM)	relative viability (Venetoclax + Trametinib; first compound 1 µM)	relative viability (Venetoclax + Phenformin; first compound 0.01 µM)	relative viability (Venetoclax + Phenformin; first compound 0.03162 µM)	relative viability (Venetoclax + Phenformin; first compound 0.1 µM)	relative viability (Venetoclax + Phenformin; first compound 0.3162 µM)	relative viability (Venetoclax + Phenformin; first compound 1 µM)	relative viability (Venetoclax + Decitabine; first compound 0.1 µM)	relative viability (Venetoclax + Trametinib; first compound 0.1 µM)
HARA	0.62	0.633	0.72	0.606	1.17	1.13	1.09	1.1	1.26	0.818	0.647	0.676	0.415	0.406	0.464	0.467	0.447		
NCI-H2087	0.316	0.335	0.23	0.29	0.838	0.585	0.457	0.431	0.197	0.181	0.199	0.257	0.461	0.471	0.387	0.407	0.461	0.267	0.178
NCI-H2405	0.763	0.683	0.717	0.633	0.771	0.636	0.525	0.37	0.769	0.603	0.646	0.591	0.343	0.357	0.348	0.404	0.379	0.74	0.584
NCI-H1944	0.478	0.447	0.481	0.407	0.97	0.945	0.756	0.779	0.511	0.474	0.432	0.361	0.216	0.197	0.183	0.212	0.205	0.492	0.394
NCI-H1793	0.301	0.58	0.45	0.49	0.478	0.304	0.311	0.281	0.334	0.46	0.335	0.419	0.457	0.354	0.271	0.36	0.303	0.521	0.367
NCI-H647	0.379	0.562	0.424	0.332	1.26	0.935	0.874	0.959	0.463	0.428	0.399	0.433	0.543	0.622	0.443	0.481	0.377	0.461	0.423
NCI-H596	1.16	0.998	0.914	0.935	0.906	0.845	0.677	0.415	0.731	0.746	0.951	0.755	0.818	0.665	0.649	0.809	0.659	0.923	0.851
EKVX	0.33	0.327	0.392	0.35	0.689	0.82	0.559	0.487	0.328	0.382	0.335	0.38	0.229	0.236	0.223	0.239	0.233	0.317	0.302
H3255	0.657	0.582	0.635	0.597	0.428	0.487	0.342	0.436	0.586	0.648	0.517	0.582	0.407	0.43	0.348	0.345	0.414	0.496	0.603
NCI-H1651	0.611	0.701	0.512	0.665	1.1	0.941	0.887	0.846	0.88	0.89	0.838	0.926	0.373	0.327	0.287	0.329	0.342	0.548	0.804
NCI-H1395	0.71	0.673	0.692	0.63	1.08	1.13	1.22	1.28	1.05	0.944	1.06	1.05	0.45	0.444	0.405	0.473	0.428	0.736	1.02
NCI-H23	0.322	0.298	0.316	0.317	0.851	0.827	0.672	0.63	0.441	0.427	0.346	0.346	0.762	0.751	0.815	0.8	0.719	0.337	0.365
NCI-H1355	0.372	0.351	0.37	0.362	0.893	0.932	0.776	0.513	0.455	0.46	0.432	0.44	0.436	0.474	0.467	0.468	0.412	0.402	0.435
NCI-H2085	0.549	0.59	0.566	0.565	1.09	1.07	0.913	0.795	0.45	0.56	0.547	0.511	0.635	0.762	0.688	0.766	0.655	0.582	0.416
NCI-H322M	0.709	0.695	0.804	0.747	1.14	0.795	1.05	1.04	0.528	0.519	0.534	0.562	0.781	0.793	0.763	0.886	0.803	0.685	0.436
NCI-H1915	0.23	0.279	0.258	0.258	0.714	0.792	0.795	0.498	0.253	0.319	0.318	0.299	0.362	0.385	0.354	0.376	0.375	0.258	0.295
